Results on nine molecules are retold here after US20060240028A1, “Anti-nls substances and uses thereof in nuclear import inhibition” (priority 2002, published 2006).

No end group written: not given here.

The test system of experiment [1] is VprN-mediated nuclear import. The experiment is described as follows: Nuclear import of FL-BSA-VprN in permeabilized HeLa cells, fluorescence microscopy. To be noted: 1 mg/ml WGA, 4 mM GTP-γ-S, Table 2 (not given). Format: cell-based. The method, then: (§1) Nuclear import of rhodamine-labeled BSA-NLS conjugates (FL-BSA-NLS) was performed as described before [Adam (1992) id ibid.; Broder (1997) id ibid.]. Amounts of FL-BSA-NLS substrate for FL-BSA SV40 large T-Ag NLS was 3-5 μg/system and for the FL-BSA-VprN 25 μg/system. Controls included: 1 mg/ml Wheat Germ Agglutinin (WGA), 4 mM of GTP-γ-S, or 1000 units/ml of Hexokinase and 10 mM Glucose. Samples were observed and photographed using confocal fluorescent microscopy.

Experiment [2] deals with nuclear import of Vpr-GST fusion protein. The experiment is described as follows: Nuclear import of FL-Vpr-GST in digitonin permeabilized HeLa cells. Format: cell-based. To be noted: 5-fold excess unlabeled Vpr-GST. The method, then: as §1
The Vpr-GST fusion protein eluted from the Glutathione-Agarose resin was concentrated by VivaScience concentrators (MWCO 30,000) to a final concentration of 2.5-3.0 mg/ml, dialyzed for 2-3 hours against 1×PBS at 4° C. and labeled with rhodamine-maleimide Molecular Probes) according to manufacturer's instructions. Following 2 hours of incubation at room temperature with rotation, the labeled Vpr-GST fusion protein (FL-Vpr-GST) was purified using Sephadex G-25 fine (Pharmacia). The FL-Vpr-GST was then concentrated again using VivaScience concentrators (MWCO 30,000) and stored at −20° C.

Experiment [3] has as its system Tat-ARM mediated nuclear import. The experiment can be described thus: Nuclear import of FL-BSA-Tat conjugates in HeLa cells. Format: cell-based. To be noted: WGA 1 mg/ml, peptide/FL-BSA-Tat 20/1.
The test system of experiment [4] is VprN-BSA conjugate (N-terminal domain of Vpr, amino acids 17-34). The experiment is described as follows: ELISA binding to surface-bound BSA-VprN conjugate. More on the design: species or system HIV-1. As to conditions: FIG. 2. The protocol:
Panning of the human scFv antibody phage display library [Harrison, J. L. et al. (1996) Methods in Enzymology 267, 83-109; Nissim, A. et al. (1994) EMBO J 13, 692-698] was conducted as follows. Two immunotubes (5 ml, NUNC) were incubated in parallel, with rotation at room temperature overnight, one containing the BSA-VprN conjugate and the other one containing only BSA, both in 0.1 mg/ml carbonate buffer (0.05M Na2CO3/0.05M NaHCO3, pH9.6). Following incubation, the tube with the surface attached BSA-VprN conjugates was washed three times with 1× PBS and then incubated for two hours at 37° C. with 2% (w/v) skim milk (DIFCO) in 1×PBS (2% MPBS). After three washes with 1× PBS, the scFv phage library (4 ml in 1% MPBS) was added and the tube containing the phage particles was incubated for 30 min with, and for 1.5 hours without rotation, at room temperature. The supernatant was then removed and the tube was washed ten times first with 1×PBS containing 0.05% Tween 20 and then with 1×PBS only. For elution of bound phages, 1 ml of 0.1M triethylamine was added, incubated for 10 min at room temperature with rotation, and the triethylamine solution containing the eluted phages collected and mixed with 0.5 ml of 1M Tris-HCl, pH7.4. […]

In experiment [5] the test system is interaction between anti-VprN scFv antibodies and surface-bound BSA-VprN conjugate. The experiment is described as follows: Competition ELISA: inhibition of anti-VprN scFv binding to surface-bound BSA-VprN by soluble ligands. More on the design: species or system HIV-1. To be noted: for inhibition of binding of the three antibodies to VprN-BSA by soluble ligand: Ab1, Ab2, Ab3. The method, then: (§2) The various ELISA assays used in the present work were carried out as follows: MaxiSorb plates (NUNC) were covered overnight with 25-100 μg/ml of the antigen (in Carbonate Buffer 0.05M Na2CO3/0.05M NaHCOs, pH9.6) at 4° C. On the next day, the plates were washed three times with 1×PBS and blocked with 2% BSA in 1×PBS (for antibodies) or 2% Skim Milk (DIFCO) in 1×PBS (for all other molecules) for 2 hours at 37° C. The plates were then washed three times with 1×PBS, and the appropriate ligand (in blocking solution) was added and incubated for 2 hours at 37° C. The plates were then washed three times with 1×PBS and the following detecting agents were added for detecting the antigen-ligand complexes: Avidin-POD (Roche Diagnostics), for biotin labeled molecules (1 unit/ml); anti-M13 monoclonal antibody (Amersham Pharmacia, 1:5000), for the bound phages; and a mix of mouse anti-myc antibody (Sigma, 1:1000) with anti-mouse-HRP antibody (Sigma, 1:2000) for the scFv antibodies. Each detecting agent was dissolved in the appropriate blocking solution (see above). Following incubation for 1 hour at 37° C. with the detecting agent, the plates were washed three times with 1×PBS and the appropriate substrate was added, according to manufacturer instructions.

The subject of experiment [6] is binding of anti-VprN scFv antibodies to Vpr-GST. The experiment is described as follows: Competition ELISA: inhibition of anti-VprN scFv binding to surface-bound Vpr-GST. Also noted: species or system HIV-1. To be noted: for inhibition of binding of all three antibodies to Vpr-GST by added ligand: Ab1, Ab2, Ab3. The method, then: as §2
In experiment [7] the target is T1, BSA-SV40 NLS conjugate (SV40, rhodamine- or biotin-labelled in the nuclear import assays; cysteine added at the C-terminus; peptide chemically conjugated to BSA).
T1 construct: also called BSA-SV40 large T-antigen NLS; SV40 NLS-BSA conjugate
The experiment is described as follows: peptide ELISA on coated BSA-NLS conjugates (FIG. 2A).
Experimental: (§3) The various ELISA assays used in the present work were carried out as follows: MaxiSorb plates (NUNC) were covered overnight with 25-100 μg/ml of the antigen (in Carbonate Buffer 0.05M Na₂CO₃/0.05M NaHCOs, pH9.6) at 4° C. On the next day, the plates were washed three times with 1×PBS and blocked with 2% BSA in 1×PBS (for antibodies) or 2% Skim Milk (DIFCO) in 1×PBS (for all other molecules) for 2 hours at 37° C. The plates were then washed three times with 1×PBS, and the appropriate ligand (in blocking solution) was added and incubated for 2 hours at 37° C. The plates were then washed three times with 1×PBS and the following detecting agents were added for detecting the antigen-ligand complexes: Avidin-POD (Roche Diagnostics), for biotin labeled molecules (1 unit/ml); anti-M13 monoclonal antibody (Amersham Pharmacia, 1:5000), for the bound phages; and a mix of mouse anti-myc antibody (Sigma, 1:1000) with anti-mouse-HRP antibody (Sigma, 1:2000) for the scFv antibodies. Each detecting agent was dissolved in the appropriate blocking solution (see above). Following incubation for 1 hour at 37° C. with the detecting agent, the plates were washed three times with 1×PBS and the appropriate substrate was added, according to manufacturer instructions.

Experiment [8] deals with T2, BSA-VprN conjugate (HIV-1, rhodamine- or biotin-labelled in the nuclear import assays; cysteine added at the N-terminus; peptide chemically conjugated to BSA).
T2 construct: The peptide is printed with superscripts 16 and 34, the text calls it residues 17-34; also called VprN-BSA conjugate; VprN-BSA
The experiment is described as follows: peptide ELISA on coated BSA-NLS conjugates (FIGS. 2A and 2B).
Experimental: as §3

In experiment [9] the target is anti-VprN scFv antibody Ab1. The experiment is described as follows: competition ELISA: free VprN peptide against Ab1 binding to coated BSA-VprN.

`Nc1nc2c(ncn2[C@@H]2O[C@H](COP(=O)(O)OP(=O)(O)OP(O)(O)=S)[C@@H](O)[C@H]2O)c(=O)[nH]1` [GTP-γ-S]: the “inhibition of nuclear import of BSA-VprN conjugate by control agents” value in experiment [1] is “partially inhibited”. Further, the “inhibition of nuclear import of Vpr-GST by control agents” value in [2] was “partially inhibited”.
wheat germ agglutinin [WGA]: the “inhibition of nuclear import of BSA-VprN conjugate by control agents” value in experiment [1] is “inhibited”. For the same molecule, the “inhibition of nuclear import of Vpr-GST by control agents” value in experiment [2] was “inhibited”. Besides, the “inhibition of nuclear import of FL-BSA Tat ARM conjugates by control agents” value in experiment [3] was “inhibited”.
For “peptide a: synthetic peptide of the CDR3 random insert of phage A, ISSD (SEQ. ID. NO. 4) (AFMKSGKRFIH; CDR3 random insert sequence of Ab2)”, the “binding of anti-VprN peptide to VprN-BSA conjugate” value in experiment [4] is on record as “failed to recognize”.
For “VprN-BSA: BSA molecule bearing about 3-4 covalently attached VprN peptides”, in experiment [5], the “inhibition of binding of the three antibodies to VprN-BSA by soluble ligand” value (shortened to “inhibition of binding … by soluble ligand”) is reported as “inhibited”. Besides, the “concentration of soluble ligand inhibiting Ab1 binding to its antigen by 90%” value in experiment [5] (Ab1, surface-bound VprN-BSA) is listed as “about 5 μM”. Also, in [6], the “fold lower concentration than VprN peptide required to block antibody binding to Vpr-GST” value is listed as “about ten” and the “inhibition of binding of all three antibodies to Vpr-GST by added ligand” value is “strongly inhibited”.
On to VprN mutant (CNEATLELLPELKNPAVRHF), for which the “inhibition of binding … by soluble ligand” value in experiment [5] is recorded as “No or low inhibition”. Besides, the “inhibition of binding of all three antibodies to Vpr-GST by added ligand” value in experiment [6] is “no or little inhibition”.
Consider “SV40 NLS peptide: PKKKRKVC (SEQ. ID. NO.7), the SV40 large T-antigen NLS (SV40-NLS with extra C)”, for which the “inhibition of binding … by soluble ligand” value in experiment [5] is listed as “No or low inhibition”.
In the case of ISSD (not fully specified) [synthetic anti-VprN peptide a (CDR3 random insert of phage A)], the binding result in [7] and in experiment [8] was “no binding” each time.
As for HFHYKGKLQTF (not fully specified) [synthetic anti-VprN peptide c (CDR3 random insert of phage C)], the binding result in experiment [7] and in experiment [8] was “no binding” throughout.
In turn, CNEWTLELLEELKNEAVRHF (cysteine added at the N-terminus) [VprN peptide (free synthetic peptide)] showed a concentration giving 90% inhibition in [9] of more than 15 µM.
